Data published in patent US12187742B2 (XRAD Therapeutics, Inc., priority 2018, dated 2025).
Counter-ions that a name gives are not always drawn.

What follows are molecules tested against ATM (Homo sapiens (Human), UniProt Q13315) (assay: ATM in Cell Western Assay (pKAP1 in etoposide-treated MCF-7 cells)). Settings: pKAP1 in etoposide-treated MCF-7 cells.
Sequence of ATM (Q13315 whole entry): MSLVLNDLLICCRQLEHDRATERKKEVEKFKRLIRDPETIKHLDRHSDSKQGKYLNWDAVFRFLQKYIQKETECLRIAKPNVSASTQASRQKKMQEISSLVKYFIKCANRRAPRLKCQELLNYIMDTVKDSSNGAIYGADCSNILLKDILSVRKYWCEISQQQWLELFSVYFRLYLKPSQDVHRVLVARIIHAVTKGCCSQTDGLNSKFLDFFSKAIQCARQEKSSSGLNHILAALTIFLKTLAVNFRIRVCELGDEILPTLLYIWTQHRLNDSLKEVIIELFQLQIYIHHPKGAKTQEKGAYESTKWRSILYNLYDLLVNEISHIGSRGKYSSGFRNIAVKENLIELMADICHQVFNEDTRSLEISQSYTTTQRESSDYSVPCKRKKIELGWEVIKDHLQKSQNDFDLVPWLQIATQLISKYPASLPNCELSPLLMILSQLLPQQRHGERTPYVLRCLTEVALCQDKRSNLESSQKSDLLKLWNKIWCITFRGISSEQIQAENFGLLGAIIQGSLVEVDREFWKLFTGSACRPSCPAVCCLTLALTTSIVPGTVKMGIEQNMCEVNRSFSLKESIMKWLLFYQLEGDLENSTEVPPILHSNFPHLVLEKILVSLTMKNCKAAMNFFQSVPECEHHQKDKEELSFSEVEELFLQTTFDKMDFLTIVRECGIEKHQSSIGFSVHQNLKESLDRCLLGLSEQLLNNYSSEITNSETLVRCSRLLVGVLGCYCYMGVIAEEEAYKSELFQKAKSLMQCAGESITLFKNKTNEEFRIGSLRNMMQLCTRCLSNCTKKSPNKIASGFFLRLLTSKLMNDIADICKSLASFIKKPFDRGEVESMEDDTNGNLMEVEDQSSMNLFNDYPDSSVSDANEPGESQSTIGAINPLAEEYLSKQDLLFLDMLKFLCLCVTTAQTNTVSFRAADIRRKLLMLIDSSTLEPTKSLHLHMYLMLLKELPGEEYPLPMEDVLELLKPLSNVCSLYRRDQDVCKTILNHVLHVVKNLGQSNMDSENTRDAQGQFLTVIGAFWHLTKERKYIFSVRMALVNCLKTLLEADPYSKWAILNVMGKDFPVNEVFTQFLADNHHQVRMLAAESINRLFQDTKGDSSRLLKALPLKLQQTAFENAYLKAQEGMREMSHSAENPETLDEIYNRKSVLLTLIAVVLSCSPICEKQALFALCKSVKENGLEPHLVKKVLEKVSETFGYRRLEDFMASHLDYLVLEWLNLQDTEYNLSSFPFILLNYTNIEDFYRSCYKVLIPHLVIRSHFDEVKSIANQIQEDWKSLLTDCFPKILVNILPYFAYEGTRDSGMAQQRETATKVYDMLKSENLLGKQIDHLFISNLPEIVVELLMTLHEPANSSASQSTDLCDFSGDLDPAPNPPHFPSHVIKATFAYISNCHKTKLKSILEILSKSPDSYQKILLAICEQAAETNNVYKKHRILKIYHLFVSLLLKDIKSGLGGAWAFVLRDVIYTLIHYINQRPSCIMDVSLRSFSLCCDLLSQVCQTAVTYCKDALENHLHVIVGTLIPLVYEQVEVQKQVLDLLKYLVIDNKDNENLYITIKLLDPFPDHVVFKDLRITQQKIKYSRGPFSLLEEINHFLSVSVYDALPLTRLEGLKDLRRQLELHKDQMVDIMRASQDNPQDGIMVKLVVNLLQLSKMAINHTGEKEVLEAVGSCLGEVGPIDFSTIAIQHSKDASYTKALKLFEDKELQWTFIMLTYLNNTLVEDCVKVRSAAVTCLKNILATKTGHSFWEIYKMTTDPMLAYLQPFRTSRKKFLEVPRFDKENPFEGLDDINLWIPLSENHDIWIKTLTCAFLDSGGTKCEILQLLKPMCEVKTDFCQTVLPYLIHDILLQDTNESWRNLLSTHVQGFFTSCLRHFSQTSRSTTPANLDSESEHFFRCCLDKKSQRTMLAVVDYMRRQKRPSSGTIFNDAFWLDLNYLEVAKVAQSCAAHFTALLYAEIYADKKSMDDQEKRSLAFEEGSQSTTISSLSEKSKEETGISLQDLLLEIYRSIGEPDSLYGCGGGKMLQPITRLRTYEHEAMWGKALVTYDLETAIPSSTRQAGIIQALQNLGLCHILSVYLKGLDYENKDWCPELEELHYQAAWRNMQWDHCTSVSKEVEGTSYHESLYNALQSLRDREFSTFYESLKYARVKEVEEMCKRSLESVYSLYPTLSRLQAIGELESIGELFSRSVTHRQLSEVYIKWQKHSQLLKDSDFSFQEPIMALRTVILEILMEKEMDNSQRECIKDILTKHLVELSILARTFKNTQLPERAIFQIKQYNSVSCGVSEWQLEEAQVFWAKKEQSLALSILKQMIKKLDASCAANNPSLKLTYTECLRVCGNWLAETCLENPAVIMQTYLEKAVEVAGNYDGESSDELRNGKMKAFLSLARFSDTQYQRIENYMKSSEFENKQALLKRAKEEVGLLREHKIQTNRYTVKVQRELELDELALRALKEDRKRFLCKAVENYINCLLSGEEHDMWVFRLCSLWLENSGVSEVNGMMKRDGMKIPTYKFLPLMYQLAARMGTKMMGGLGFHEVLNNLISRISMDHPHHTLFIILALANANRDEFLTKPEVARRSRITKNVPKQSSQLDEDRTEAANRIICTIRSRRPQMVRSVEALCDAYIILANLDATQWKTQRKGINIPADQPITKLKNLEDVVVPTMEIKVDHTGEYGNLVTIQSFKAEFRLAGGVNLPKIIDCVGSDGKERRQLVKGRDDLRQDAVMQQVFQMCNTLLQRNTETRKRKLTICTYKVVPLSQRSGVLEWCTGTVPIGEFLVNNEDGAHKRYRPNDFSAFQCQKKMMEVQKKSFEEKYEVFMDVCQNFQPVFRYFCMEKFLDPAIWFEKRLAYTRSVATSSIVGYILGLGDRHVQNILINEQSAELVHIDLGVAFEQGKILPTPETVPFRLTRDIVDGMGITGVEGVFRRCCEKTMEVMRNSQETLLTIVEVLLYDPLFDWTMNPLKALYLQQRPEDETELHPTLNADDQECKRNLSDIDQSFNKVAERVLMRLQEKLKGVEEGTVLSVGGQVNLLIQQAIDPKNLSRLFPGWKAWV
Assay type: cell-based
How it was run: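 Cells received compounds in a 10-dose, 3-fold series from a 1 μM final top concentration, then 100 μM etoposide, for 1 hr at 37° C. They were then fixed with paraformaldehyde and permeabilized with 0.1% Triton X-100. After immunostaining, plates were scanned on an infrared imager.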
In the case of `CC(C)NCCOc1ncc(-c2cc3c4c(cnc3cc2F)N(C)C(=O)C42CN(CCO)C2)cc1NS(C)(=O)=O` [Example 506, N-(5-(7′-Fluoro-1-(2-hydroxyethyl)-3′-methyl-2′-oxo-2′,3′-dihydrospiro[azetidine-3,1′-pyrrolo[2,3-c]quinolin]-8′-yl)-2-(2-(isopropylamino)ethoxy)pyridin-3-yl)methanesulfonamide], the IC50 is reported as 0.001 to 0.1 µM. With `COCCN1CC2(C1)C(=O)N(C)c1cnc3cc(F)c(-c4cnc(OCCNC(C)C)c(NS(C)(=O)=O)c4)cc3c12` [Example 507, N-(5-(7′-Fluoro-1-(2-methoxyethyl)-3 methyl-2′-oxo-2′,3′-dihydrospiro[azetidine-3,1′-pyrrolo[2,3-c]quinolin]-8′-yl)-2-(2-(isopropylamino)ethoxy)pyridin-3-yl)methanesulfonamide] the IC50 was 0.001 to 0.1 µM. `CC(C)NCCOc1ncc(-c2cc3c4c(cnc3cc2F)N(C)C(=O)C42CN(CC(F)F)C2)cc1NS(C)(=O)=O` [Example 508, N-(5-(1-(2,2-Difluoroethyl)-7′-fluoro-3′-methyl-2′-oxo-2′,3′-dihydrospiro[azetidine-3,1′-pyrrolo[2,3-c]quinolin]-8′-yl)-2-(2-(isopropylamino)ethoxy)pyridin-3-yl)methanesulfonamide] was tested, and the IC50 was 0.001 to 0.1 µM. `CC(C)NCCOc1ncc(-c2cc3c4c(cnc3cc2F)N(C)C(=O)C42CN(C[C@@H](O)CO)C2)cc1NS(C)(=O)=O` [Example 509, (R)-N-(5-(1-(2,3-Dihydroxypropyl)-7′-fluoro-3′-methyl-2′-oxo-2′,3′-dihydrospiro[azetidine-3,1′-pyrrolo[2,3-c]quinolin]-8′-yl)-2-(2-(isopropylamino)ethoxy)pyridin-3-yl)methanesulfonamide] gave an IC50 greater than 0.1 µM. Work on `CC(C)NCCOc1ncc(-c2cc3c4c(cnc3cc2F)N(C)C(=O)C42CN(C[C@H](O)CO)C2)cc1NS(C)(=O)=O` [Example 510, (S)-N-(5-(1-(2,3-Dihydroxypropyl)-7′-fluoro-3′-methyl-2′-oxo-2′,3′-dihydrospiro[azetidine-3,1′-pyrrolo[2,3-c]quinolin]-8′-yl)-2-(2-(isopropylamino)ethoxy)pyridin-3-yl)methanesulfonamide] yielded an IC50 greater than 0.1 µM. `CC(=O)N1CC2(C1)C(=O)N(C)c1cnc3cc(F)c(-c4cnc(OCCNC(C)C)c(NS(C)(=O)=O)c4)cc3c12` [Example 511, N-(5-(1-Acetyl-7′-fluoro-3′-methyl-2′-oxo-2′,3′-dihydrospiro[azetidine-3,1′-pyrrolo[2,3-c]quinolin]-8′-yl)-2-(2-(isopropylamino)ethoxy)pyridin-3-yl)methanesulfonamide] showed an IC50 greater than 0.1 µM. In the case of `CC(C)NCCOc1ncc(-c2cc3c4c(cnc3cc2F)N(C)C(=O)C42CN(C(=O)C(C)C)C2)cc1NS(C)(=O)=O` [Example 512, N-(5-(7′-Fluoro-1-isobutyryl-3′-methyl-2′-oxo-2′,3′-dihydrospiro[azetidine-3,1′-pyrrolo[2,3-c]quinolin]-8′-yl)-2-(2-(isopropylamino)ethoxy)pyridin-3-yl)methanesulfonamide], the IC50 is reported as greater than 0.1 µM. In the case of `COC(=O)N1CC2(C1)C(=O)N(C)c1cnc3cc(F)c(-c4cnc(OCCNC(C)C)c(NS(C)(=O)=O)c4)cc3c12` [Example 513, Methyl7′-fluoro-8′-(6-(2-(isopropylamino)ethoxy)-5-(methylsulfonamido)pyridin-3-yl)-3′-methyl-2′-oxo-2′,3′-dihydrospiro[azetidine-3,1′-pyrrolo[2,3-c]quinoline]-1-carboxylate], the IC50 is reported as greater than 0.1 µM. In the case of `CC(C)NCCOc1ncc(-c2cc3c4c(cnc3cc2F)N(C)C(=O)C42CN(C(=O)OC(C)C)C2)cc1NS(C)(=O)=O` [Example 514, Isopropyl 7′-fluoro-8′-(6-(2-(isopropylamino)ethoxy)-5-(methylsulfonamido)pyridin-3-yl)-3′-methyl-2′-oxo-2′,3′-dihydrospiro [azetidine-3,1′-pyrrolo[2,3-c]quinoline]-1-carboxylate], the IC50 is reported as 0.001 to 0.1 µM. In the case of `CC(C)NCCOc1ncc(-c2cc3c4c(cnc3cc2F)N(C)C(=O)C42CN(S(=O)(=O)c3ccccc3)C2)cc1NS(C)(=O)=O` [Example 515], the IC50 is reported as greater than 0.1 µM. Molecule `CC(C)NCCOc1ncc(-c2cc3c4c(cnc3cc2F)N(C)C(=O)C42CN(C(=O)c3ccccc3)C2)cc1NS(C)(=O)=O` [Example 516, N-(5-(1-Benzoyl-7′-fluoro-3′-methyl-2′-oxo-2′,3′-dihydrospiro[azetidine-3,1′-pyrrolo[2,3-c]quinolin]-8′-yl)-2-(2-(isopropylamino)ethoxy)pyridin-3-yl)methanesulfonamide] has an IC50 greater than 0.1 µM. In the case of `CC(C)NCCOc1ncc(-c2cc3c4c(cnc3cc2F)N(C)C(=O)C42CN(C(N)=O)C2)cc1NS(C)(=O)=O` [Example 517, 7′-Fluoro-8′-(6-(2-(isopropylamino)ethoxy)-5-(methylsulfonamido)pyridin-3-yl)-3′-methyl-2′-oxo-2′,3′-dihydrospiro[azetidine-3,1′-pyrrolo[2,3-c]quinoline]-1-carboxamide], the IC50 is reported as greater than 0.1 µM. Molecule `CC(C)NCCOc1ncc(-c2cc3c4c(cnc3cc2F)N(C)C(=O)C42CN(C(=O)N(C)C)C2)cc1NS(C)(=O)=O` [Example 518, 7′-Fluoro-8′-(6-(2-(isopropylamino)ethoxy)-5-(methylsulfonamido)pyridin-3-yl)-N,N,3′-trimethyl-2′-oxo-2′,3′-dihydrospiro[azetidine-3,1′-pyrrolo[2,3-c]quinoline]-1-carboxamide] has an IC50 greater than 0.1 µM. Work on `Cc1cc(S(=O)(=O)Nc2cc(-c3cc4c5c(cnc4cc3F)N(C)C(=O)C53CN(c4ccccc4)C3)cnc2OCCNC(C)C)sn1` [Example 521] yielded an IC50 of 0.001 to 0.1 µM. In the case of `CC(C)NCCOc1ncc(-c2cc3c4c(cnc3cc2F)N(C)C(=O)C42CN(c3ccc(C(C)(C)C)cc3)C2)cc1NS(C)(=O)=O` [Example 531, N-(5-(1-(4-(ter-Butyl)phenyl)-7′-fluoro-3′-methyl-2′-oxo-2′,3′-dihydrospiro[azetidine-3,1′-pyrrolo[2,3-c]quinolin]-8′-yl)-2-(2-(isopropylamino)ethoxy)pyridin-3-yl)methanesulfonamide], the IC50 is reported as 0.001 to 0.1 µM. `COc1cccc(N2CC3(C2)C(=O)N(C)c2cnc4cc(F)c(-c5cnc(OCCNC(C)C)c(NS(C)(=O)=O)c5)cc4c23)c1` [Example 534, N-(5-(7′-Fluoro-1-(3-methoxyphenyl)-3′-methyl-2′-oxo-2′,3′-dihydrospiro [azetidine-3,1′-pyrrolo[2,3-c]quinolin]-8′-yl)-2-(2-(isopropylamino)ethoxy)pyridin-3-yl)methanesulfonamide] gave an IC50 of 0.001 to 0.1 µM. For `CC(C)NCCOc1ncc(-c2cc3c4c(cnc3cc2F)N(C)C(=O)C42CN(c3cccc(C(F)(F)F)c3)C2)cc1NS(C)(=O)=O` [Example 537, N-(5-(7′-Fluoro-3′-methyl-2′-oxo-1-(3-(trifluoromethyl)phenyl)-2′,3′-dihydrospiro[azetidine-3,1′-pyrrolo[2,3-c]quinolin]-8′-yl)-2-(2-(isopropylamino)ethoxy)pyridin-3-yl)methanesulfonamide], the IC50 was 0.001 to 0.1 µM. For `CC(C)NCCOc1ncc(-c2cc3c4c(cnc3cc2F)N(C)C(=O)C42CN(c3cccc(OC(F)(F)F)c3)C2)cc1NS(C)(=O)=O` [Example 542, N-(5-(7′-Fluoro-3′-methyl-2′-oxo-1-(3-(trifluoromethoxy)phenyl)-2′,3′-dihydrospiro[azetidine-3,1′-pyrrolo[2,3-c]quinolin]-8′-yl)-2-(2-(isopropylamino)ethoxy)pyridin-3-yl)methanesulfonamide], the IC50 was 0.001 to 0.1 µM. `COc1ccc(N2CC3(C2)C(=O)N(C)c2cnc4cc(F)c(-c5cnc(OCCNC(C)C)c(NS(C)(=O)=O)c5)cc4c23)cc1OC` [Example 546, N-(5-(1-(3,4-Dimethoxyphenyl)-7′-fluoro-3′-methyl-2′-oxo-2′,3′-dihydrospiro[azetidine-3,1′-pyrrolo[2,3-c]quinolin]-8′-yl)-2-(2-(isopropylamino)ethoxy)pyridin-3-yl)methanesulfonamide] gave an IC50 of 0.001 to 0.1 µM. `CC(C)NCCOc1ncc(-c2cc3c4c(cnc3cc2F)N(C)C(=O)C42CN(c3ccncc3)C2)cc1NS(C)(=O)=O` [Example 547, N-(5-(7′-Fluoro-3′-methyl-2′-oxo-1-(pyridin-4-yl)-2′,3′-dihydrospiro [azetidine-3,1′-pyrrolo[2,3-c]quinolin]-8′-yl)-2-(2-(isopropylamino)ethoxy)pyridin-3-yl)methanesulfonamide] gave an IC50 greater than 0.1 µM. `CC(C)NCCOc1ncc(-c2cc3c4c(cnc3cc2F)N(C)C(=O)C42CN(c3cccnc3)C2)cc1NS(C)(=O)=O` [Example 548, N-(5-(7′-Fluoro-3′-methyl-2′-oxo-1-(pyridin-3-yl)-2′,3′-dihydrospiro [azetidine-3,1′-pyrrolo[2,3-c]quinolin]-8′-yl)-2-(2-(isopropylamino)ethoxy)pyridin-3-yl)methanesulfonamide hydrochloride] gave an IC50 of 0.001 to 0.1 µM. With `CC(C)NCCOc1ncc(-c2cc3c4c(cnc3cc2F)N(C)C(=O)C42CN(c3cncnc3)C2)cc1NS(C)(=O)=O` [Example 549, N-(5-(7′-Fluoro-3′-methyl-2′-oxo-1-(pyrimidin-5-yl)-2′,3′-dihydrospiro[azetidine-3,1′-pyrrolo[2,3-c]quinolin]-8′-yl)-2-(2-(isopropylamino)ethoxy)pyridin-3-yl)methanesulfonamide] the IC50 was greater than 0.1 µM. With `CC(C)NCCOc1ncc(-c2cc3c4c(cnc3cc2F)N(C)C(=O)C42CN(c3nn[nH]n3)C2)cc1NS(C)(=O)=O` [Example 550, N-(5-(7′-Fluoro-3′-methyl-2′-oxo-1-(2H-tetrazol-5-yl)-2′,3′-dihydrospiro [azetidine-3,1′-pyrrolo[2,3-c]quinolin]-8′-yl)-2-(2-(isopropylamino)ethoxy)pyridin-3-yl)methanesulfonamide] the IC50 was greater than 0.1 µM. `CC(C)NCCOc1ncc(-c2cc3c4c(cnc3cc2F)N(C)C(=O)C42CN(c3ncccn3)C2)cc1NS(C)(=O)=O` [Example 551, N-(5-(7′-Fluoro-3′-methyl-2′-oxo-1-(pyrimidin-2-yl)-2′,3′-dihydrospiro[azetidine-3,1′-pyrrolo[2,3-c]quinolin]-8′-y))-2-(2-(isopropylamino)ethoxy)pyridin-3-yl)methanesulfonamide hydrochloride] gave an IC50 greater than 0.1 µM.
